We go through twelve compounds from the supplement of paper PMC11281043.

± gives the standard deviation of the averaged measurements.

Assay [1] has as its system Danio rerio embryo/larva. As to the kind of experiment: max % larvae with any abnormality across tested concentrations; max tested concentration (log10 uM): 1.30103; higher = more toxic; extreme values may be limits of the assay. As to conditions: exposure: 6-8 hpf to 5 dpf, scored at 6 dpf.
Assay [2] has as its system Danio rerio embryo/larva. As to the kind of experiment: max % larvae unhatched across tested concentrations; max tested concentration (log10 uM): 1.30103; higher = more toxic. As to conditions: exposure: 6-8 hpf to 5 dpf, scored at 6 dpf.
The subject of assay [3] is Danio rerio embryo/larva. As to the kind of experiment: max % larvae dead across tested concentrations; max tested concentration (log10 uM): 1.30103; higher = more toxic; extreme values may be limits of the assay. As to conditions: exposure: 6-8 hpf to 5 dpf, scored at 6 dpf.
The test system of assay [4] is Danio rerio embryo/larva. Briefly: BMC blood pooling; max tested concentration (log10 uM): 2; higher = less potent. Particulars: exposure: 6-8 hpf to 5 dpf, scored at 6 dpf. On the procedure:
(§1)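 Zebrafish embryos (with chorion) were exposed from 6-8 hpf to each PFAS (8-point half-log series, top concentration up to 100 uM, 0.4% DMSO, sealed plates, 26 C; n = 6 embryos per concentration), rinsed at 5 dpf and scored at 6 dpf by two blinded observers for mortality, hatching and malformations. Endpoint scores are the % of living larvae affected (dead larvae excluded; […]). Curves were fitted with tcpl (cutoff 16%), and the BMC is the concentration at a benchmark response of 21.6%.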

Assay [5] relates to Danio rerio embryo/larva. As to the kind of experiment: max % larvae unhatched across tested concentrations; max tested concentration (log10 uM): 2; higher = more toxic. Particulars: exposure: 6-8 hpf to 5 dpf, scored at 6 dpf.
Assay [6] deals with Danio rerio embryo/larva. Briefly: BMC swim bladder non-inflation; higher = less potent. Particulars: exposure: 6-8 hpf to 5 dpf, scored at 6 dpf. As to the method:
as §1

Assay [7] relates to Danio rerio embryo/larva. As to the kind of experiment: BMC any abnormality; max tested concentration (log10 uM): 2; higher = less potent. Particulars: exposure: 6-8 hpf to 5 dpf, scored at 6 dpf. As to the method:
as §1

Assay [8] relates to Danio rerio embryo/larva. As to the kind of experiment: BMC craniofacial defects; higher = less potent. Particulars: exposure: 6-8 hpf to 5 dpf, scored at 6 dpf. As to the method: as §1
The test system of assay [9] is Danio rerio embryo/larva. Briefly: BMC spinal defects; higher = less potent. As to conditions: max tested concentration (log10 uM): 2; exposure: 6-8 hpf to 5 dpf, scored at 6 dpf. On the procedure:
as §1

Assay [10] deals with Danio rerio embryo/larva. Briefly: max % larvae with any abnormality across tested concentrations; max tested concentration (log10 uM): 2; higher = more toxic; extreme values may be limits of the assay. Particulars: exposure: 6-8 hpf to 5 dpf, scored at 6 dpf.
In assay [11] the test system is Danio rerio embryo/larva. As to the kind of experiment: BMC abnormal position; higher = less potent. Particulars: exposure: 6-8 hpf to 5 dpf, scored at 6 dpf. As to the method:
as §1

The test system of assay [12] is Danio rerio embryo/larva. As to the kind of experiment: BMC edema; higher = less potent. As to conditions: exposure: 6-8 hpf to 5 dpf, scored at 6 dpf. As to the method:
as §1

Assay [13] has as its system Danio rerio embryo/larva. Briefly: max % larvae dead across tested concentrations; max tested concentration (log10 uM): 1.60206; higher = more toxic; extreme values may be limits of the assay. Particulars: exposure: 6-8 hpf to 5 dpf, scored at 6 dpf.
Assay [14] relates to Danio rerio embryo/larva. As to the kind of experiment: max % larvae unhatched across tested concentrations; max tested concentration (log10 uM): 1.60206; higher = more toxic. Particulars: exposure: 6-8 hpf to 5 dpf, scored at 6 dpf.
For assay [15], the system named is Danio rerio embryo/larva. Briefly: max % larvae with any abnormality across tested concentrations; max tested concentration (log10 uM): 1.60206; higher = more toxic; extreme values may be limits of the assay. As to conditions: exposure: 6-8 hpf to 5 dpf, scored at 6 dpf.
Assay [16] concerns Danio rerio embryo/larva. Briefly: max % larvae dead across tested concentrations; max tested concentration (log10 uM): 2; higher = more toxic; extreme values may be limits of the assay. As to conditions: exposure: 6-8 hpf to 5 dpf, scored at 6 dpf.
The test system of assay [17] is Danio rerio embryo/larva. As to the kind of experiment: BMC mortality; max tested concentration (log10 uM): 2; higher = less potent. As to conditions: exposure: 6-8 hpf to 5 dpf, scored at 6 dpf. As to the method:
as §1

Setting [18] is: max tested concentration (log10 uM): 2.
Setting [19] is: max tested concentration (log10 uM): 1.
[20] abbreviates: max tested concentration (log10 uM): 0.477121.

The compound `O=C(O)C(F)(F)C(F)(F)C(F)(F)C(F)(F)C(F)(F)C(F)(F)C(F)(F)C(F)(F)C(F)(F)C(F)(F)C(F)(F)C(F)(F)F` [Perfluorotridecanoic acid] returned a max % larvae with Danio rerio embryo/larva [1] of 16.7%. The “max % larvae unhatched across tested concentrations” value in the assay on Danio rerio embryo/larva [2] turned out to be 0%. Besides, in the assay on Danio rerio embryo/larva [3], the “max % larvae dead across tested concentrations” value worked out at 0%.
In turn, `FC(F)(I)C(F)(F)C(F)(F)C(F)(F)C(F)(F)C(F)(F)I` [1,6-Diiodoperfluorohexane] showed a BMC blood pooling with Danio rerio embryo/larva [4] of 14.5 ± 16 µM. Further, the “max % larvae unhatched across tested concentrations” value in the assay with Danio rerio embryo/larva [5] was determined as 0%. Moreover, the “BMC swim bladder non-inflation” value with Danio rerio embryo/larva [6] (setting [18]) came out at 6.49 ± 3.8 µM. In the assay with Danio rerio embryo/larva [7], the BMC any abnormality is 5.18 ± 4.7 µM. In addition, the BMC craniofacial defects in the assay on Danio rerio embryo/larva [8] (setting [18]) is 26.4 ± 3.9 µM. The same compound came in with a BMC spinal defects with Danio rerio embryo/larva [9] of 7.34 µM. This compound had a max % larvae in the assay with Danio rerio embryo/larva [10] of 100%. Moreover, the BMC abnormal position in the assay on Danio rerio embryo/larva [11] (setting [18]) worked out at 14.9 ± 17 µM. In the assay with Danio rerio embryo/larva [12] (setting [18]), the BMC edema was determined as 6.97 ± 5.2 µM.
Turning to `CO[Si](C)(CCC(F)(F)C(F)(F)C(F)(F)C(F)(F)C(F)(F)C(F)(F)F)OC` [Dimethoxymethyl((perfluorohexyl)ethyl)silane], in the assay with Danio rerio embryo/larva [13], the “max % larvae dead across tested concentrations” value turned out to be 0%. The “max % larvae unhatched across tested concentrations” value in the assay on Danio rerio embryo/larva [14] amounted to 0%. This compound also gave a max % larvae in the assay with Danio rerio embryo/larva [15] of 0%.
In the assay on Danio rerio embryo/larva [4], `O=S(=O)(OCC(F)(F)F)C(F)(F)C(F)(F)C(F)(F)C(F)(F)F` [2,2,2-Trifluoroethyl perfluorobutanesulfonate] yielded a BMC blood pooling of 35.5 µM. Besides, the “max % larvae unhatched across tested concentrations” value with Danio rerio embryo/larva [5] is 0%. Moreover, the “BMC swim bladder non-inflation” value in the assay on Danio rerio embryo/larva [6] (setting [18]) was 77 µM. The BMC any abnormality with Danio rerio embryo/larva [7] is 29.4 µM. The max % larvae with Danio rerio embryo/larva [10] is 95.5%. Besides, the “max % larvae dead across tested concentrations” value in the assay on Danio rerio embryo/larva [16] turned out to be 0%. The compound also registered a BMC edema in the assay on Danio rerio embryo/larva [12] (setting [18]) of 32.7 µM.
On to `FC(F)(F)C(F)(F)C(F)(F)C(F)(F)C(F)(F)C(F)(F)C(F)(F)CCI` [1-Iodo-1H,1H,2H,2H-perfluorononane], for which the “max % larvae dead across tested concentrations” value in the assay on Danio rerio embryo/larva [13] was 16.7%. Also, in the assay on Danio rerio embryo/larva [14], the “max % larvae unhatched across tested concentrations” value was found to be 0%. Further, the max % larvae in the assay on Danio rerio embryo/larva [15] came out at 16.7%.
For the compound `FC(F)(F)C(F)(F)C(F)(F)C(F)(F)C(F)(F)C(F)(F)CCS` [2-(Perfluorohexyl)ethanethiol], the “max % larvae dead across tested concentrations” value in the assay with Danio rerio embryo/larva [13] turned out to be 0%. Also, the “max % larvae unhatched across tested concentrations” value with Danio rerio embryo/larva [14] came out at 0%. For the same compound, the max % larvae in the assay on Danio rerio embryo/larva [15] is 16.7%.
As to `O=S(=O)(O)C(F)(F)C(F)(F)C(F)(F)C(F)(F)C(F)(F)C(F)(F)C(F)(F)C(F)(F)F` [Perfluorooctanesulfonic acid], the “max % larvae unhatched across tested concentrations” value in the assay with Danio rerio embryo/larva [5] worked out at 0%. The “BMC swim bladder non-inflation” value with Danio rerio embryo/larva [6] (setting [19]) stood at 8.02 µM. Also, in the assay with Danio rerio embryo/larva [7], the BMC any abnormality worked out at 7.48 µM. Moreover, the BMC mortality with Danio rerio embryo/larva [17] is 9.38 µM. In the assay on Danio rerio embryo/larva [8] (setting [19]), the BMC craniofacial defects is 8.4 µM. Further, in the assay with Danio rerio embryo/larva [10], the max % larvae was 100%. The “max % larvae dead across tested concentrations” value in the assay with Danio rerio embryo/larva [16] is 100%. Further, the BMC abnormal position in the assay on Danio rerio embryo/larva [11] (setting [19]) amounted to 9.2 µM. In addition, the BMC edema with Danio rerio embryo/larva [12] (setting [19]) worked out at 8.58 µM.
`OCC(F)(F)C(F)(F)C(F)(F)C(F)(F)C(F)(F)C(F)(F)C(F)(F)C(F)(F)C(F)(F)C(F)(F)C(F)(F)F` [11:1 Fluorotelomer alcohol]: the max % larvae with Danio rerio embryo/larva [1] amounted to 8.33%. For the same compound, the “max % larvae unhatched across tested concentrations” value in the assay on Danio rerio embryo/larva [2] was 0%.
Regarding `COC(=O)C(F)(F)C(F)(F)OC(F)(C(F)(F)F)C(F)(F)OC(F)=C(F)F` (stereo unspecified) [Methyl perfluoro(3-(1-ethenyloxypropan-2-yloxy)propanoate)], the “max % larvae dead across tested concentrations” value with Danio rerio embryo/larva [13] was 0%. Further, the “max % larvae unhatched across tested concentrations” value in the assay on Danio rerio embryo/larva [14] came out at 0%. Moreover, the max % larvae with Danio rerio embryo/larva [15] turned out to be 8.33%.
On to `NS(=O)(=O)C(F)(F)C(F)(F)C(F)(F)C(F)(F)C(F)(F)C(F)(F)F` [Perfluorohexanesulfonamide], for which the “max % larvae unhatched across tested concentrations” value in the assay with Danio rerio embryo/larva [5] amounted to 0%. In addition, the “BMC swim bladder non-inflation” value with Danio rerio embryo/larva [6] (setting [20]) was 2.28 µM. The compound also registered a BMC any abnormality in the assay on Danio rerio embryo/larva [7] of 1.45 µM. The same compound came in with a BMC craniofacial defects in the assay on Danio rerio embryo/larva [8] (setting [20]) of 2.4 µM. For the same compound, the max % larvae in the assay on Danio rerio embryo/larva [10] is 100%. Also, in the assay with Danio rerio embryo/larva [11] (setting [20]), the BMC abnormal position was determined as 2.67 µM. Further, the BMC edema in the assay on Danio rerio embryo/larva [12] (setting [20]) amounted to 1.66 µM.
As to `O=S(=O)(Cl)C(F)(F)C(F)(F)C(F)(F)C(F)(F)C(F)(F)C(F)(F)C(F)(F)C(F)(F)F` [Perfluoro-1-octanesulfonyl chloride], the “max % larvae unhatched across tested concentrations” value in the assay on Danio rerio embryo/larva [5] came to 0%. Also, in the assay with Danio rerio embryo/larva [6] (setting [18]), the “BMC swim bladder non-inflation” value was found to be 10.4 µM. In the assay with Danio rerio embryo/larva [7], the BMC any abnormality was found to be 10.4 µM. Moreover, in the assay on Danio rerio embryo/larva [17], the BMC mortality came to 77.9 µM. In the assay with Danio rerio embryo/larva [9], the BMC spinal defects was 95.8 µM. Moreover, in the assay with Danio rerio embryo/larva [10], the max % larvae was found to be 100%. The “max % larvae dead across tested concentrations” value in the assay on Danio rerio embryo/larva [16] turned out to be 83.3%. Also, the BMC abnormal position in the assay on Danio rerio embryo/larva [11] (setting [18]) was 92 µM. The compound also gave a BMC edema with Danio rerio embryo/larva [12] (setting [18]) of 29.4 µM.
For the compound `C=C(C)C(=O)OCC(F)(F)C(F)(F)C(F)(F)C(F)(F)C(F)(F)C(F)(F)C(F)(F)F` [(Perfluoroheptyl)methyl methacrylate], the “max % larvae dead across tested concentrations” value with Danio rerio embryo/larva [13] stood at 0%. Besides, the “max % larvae unhatched across tested concentrations” value with Danio rerio embryo/larva [14] turned out to be 0%. The compound also showed a max % larvae with Danio rerio embryo/larva [15] of 0%.
